# What was measured:
# [1] = test system: T-cell; assay: CD25 cell surface staining on T-cells co-stimulated with anti-CD3 and anti-CD28 antibody (Biological Example 2); type: cell-based, human; details: Homo sapiens, T-cell; for fold induction at 4 µM: 4 μM Cbl-b inhibitor
# Method in brief: (§1)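 Values are fold-change over baseline: readings (IL-2 release, CD25 staining) from inhibitor-treated T-cells divided against untreated cells […]. No detailed procedure stated.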
# [2] = test system: T-cell; assay: IL-2 secretion from T-cells co-stimulated with anti-CD3 and anti-CD28 antibody (Biological Example 2); type: cell-based, human; details: Homo sapiens, T-cell; for fold induction at 4 µM: 4 μM Cbl-b inhibitor
# Method in brief: as §1
# [3] = molecular target: T1, Cbl-b (Homo sapiens, UniProt Q13191); assay: Cbl-b activity assay (Cbl-b inhibition assay), TR-FRET of Cbl-b interaction with UbcH5B-Ub; type: biochemical; details: assay buffer with 100 mM NaCl, 60 nM Src kinase; read-out: Cbl-b activity IC50
# T1 sequence (Q13191 36-427): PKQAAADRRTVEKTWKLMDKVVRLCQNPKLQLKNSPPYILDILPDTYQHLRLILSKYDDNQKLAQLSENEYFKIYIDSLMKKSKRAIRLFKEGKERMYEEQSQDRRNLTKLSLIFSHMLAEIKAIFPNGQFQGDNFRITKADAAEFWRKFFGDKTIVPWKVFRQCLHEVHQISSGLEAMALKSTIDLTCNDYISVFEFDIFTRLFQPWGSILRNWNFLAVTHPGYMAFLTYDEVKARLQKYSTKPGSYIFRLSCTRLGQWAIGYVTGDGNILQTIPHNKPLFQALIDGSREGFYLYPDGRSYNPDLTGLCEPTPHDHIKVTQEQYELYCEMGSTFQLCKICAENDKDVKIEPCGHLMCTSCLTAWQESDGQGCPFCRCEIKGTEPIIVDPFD
# Method in brief: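 Compound-treated Cbl-b was incubated 1.5 h with Src kinase (60 nM final; 30 nM for asterisked values, which also used 50 mM instead of 100 mM NaCl), 1 mM ATP and 5 mM MgCl2. Binding to fluorescent Ub-loaded UbcH5B (C85K mutant) was then read by TR-FRET after 1 h more.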
# [4] = molecular target: T1, Cbl-b; assay: Cbl-b inhibition assay (Cbl-b activity assay, FRET, Biological Example 1; 100 mM NaCl, 60 nM Src kinase); type: biochemical; details: upper bound stated in text lists; read-out: IC50 values in the Cbl-b inhibition assay of Biological Example 1
# Method in brief: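 Inhibitor activity is measured as reduced terbium-to-fluorescein FRET between streptavidin-terbium on biotinylated Cbl-b and Bodipy-fluorescein ubiquitin carried by an irreversible UbcH5B-Ub conjugate, binding of which depends on Src phosphorylation of Cbl-b.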
# [5] = test system: T-cell; assay: IL-2 secretion from T-cells stimulated with anti-CD3 antibody alone (Biological Example 2); type: cell-based, human; details: T-cell; for fold induction at 8 µM: 8 μM Cbl-b inhibitor
# [6] = fold change over baseline, 0.3 μM Cbl-b inhibitor, primary human total T-cells, read-out: CD25 staining Anti-CD3/Anti-CD28 stimulation
# [7] = fold change over baseline, 1 μM Cbl-b inhibitor, primary human total T-cells, read-out: CD25 staining Anti-CD3/Anti-CD28 stimulation
# [8] = fold change over baseline, primary human total T-cells, read-out: CD25 staining Anti-CD3/Anti-CD28 stimulation
# [9] = fold change over baseline, 0.3 μM Cbl-b inhibitor, primary human total T-cells, read-out: IL-2 secretion Anti-CD3/Anti-CD28 stimulation
# [10] = fold change over baseline, 1 μM Cbl-b inhibitor, primary human total T-cells, read-out: IL-2 secretion Anti-CD3/Anti-CD28 stimulation
# [11] = fold change over baseline, primary human total T-cells, read-out: IL-2 secretion Anti-CD3/Anti-CD28 stimulation
# [12] = fold change over baseline, 1 μM Cbl-b inhibitor, primary human total T-cells, read-out: IL-2 secretion Anti-CD3 stimulation
# [13] = fold change over baseline, primary human total T-cells, read-out: IL-2 secretion Anti-CD3 stimulation
# [14] = read-out: CD25 staining, Anti-CD3/Anti-CD28 stimulation, fold change over baseline
# [15] = read-out: IL-2 secretion, Anti-CD3/Anti-CD28 stimulation, fold change over baseline
# [16] = 0.3 μM Cbl-b inhibitor, fold change over baseline (anti-CD3/anti-CD28 stimulated T-cells without inhibitor), read-out: CD25 staining Anti-CD3/Anti-CD28 stimulation
# [17] = 1 μM Cbl-b inhibitor, fold change over baseline (anti-CD3/anti-CD28 stimulated T-cells without inhibitor), read-out: CD25 staining Anti-CD3/Anti-CD28 stimulation
# [18] = 0.3 μM Cbl-b inhibitor, fold change over baseline (anti-CD3/anti-CD28 stimulated T-cells without inhibitor), read-out: IL-2 secretion Anti-CD3/Anti-CD28 stimulation
# [19] = 1 μM Cbl-b inhibitor, fold change over baseline (anti-CD3/anti-CD28 stimulated T-cells without inhibitor), read-out: IL-2 secretion Anti-CD3/Anti-CD28 stimulation
# [20] = Homo sapiens, 1 μM Cbl-b inhibitor, fold change over baseline (anti-CD3/anti-CD28 stimulated T-cells without inhibitor), read-out: IL-2 secretion Anti-CD3 stimulation
SMILES,"fold induction at 0.3 µM [1, 6]","fold induction at 1 µM [1, 7]","fold induction at 4 µM [1, 8]","fold induction at 0.3 µM [2, 9]","fold induction at 1 µM [2, 10]","fold induction at 4 µM [2, 11]",IC50 [3],IC50 [4],"fold induction at 1 µM [5, 12]","fold induction at 8 µM [5, 13]","fold induction at 0.3 µM [1, 14]","fold induction at 1 µM [1, 14]","fold induction at 0.3 µM [2, 15]","fold induction at 1 µM [2, 15]","fold induction at 1 µM ([5]; Homo sapiens, read-out: IL-2 secretion, Anti-CD3 stimulation, fold change over baseline)","fold induction at 0.3 µM [1, 16]","fold induction at 1 µM [1, 17]","fold induction at 0.3 µM [2, 18]","fold induction at 1 µM [2, 19]","fold induction at 1 µM [5, 20]"
"Cc1cc(C(=O)Nc2cccc([C@H](C)Cc3nocc3C)c2)nc(C2CC2)n1 [Compound 330, (R)-2-cyclopropyl-6-methyl-N-(3-(1-(4-methylisoxazol-3-yl)propan-2-yl)phenyl)pyrimidine-4-carboxamide]",1.01 to 1.3,1.01 to 1.3,1.01 to 1.3,1.01 to 2.5,2.51 to 5,5 to 7.5,< 100 nM,≤ 100 nM,0.051 to 0.1,> 0.201,–,–,–,–,–,–,–,–,–,–
"Cn1cnnc1CC1(c2cccc(NC(=O)c3nc4c(C(F)(F)F)cccc4[nH]3)c2)COC1 [Compound 335, N-(3-{3-[(4-methyl-1,2,4-triazol-3-yl)methyl]oxetan-3-yl}phenyl)-4-(trifluoromethyl)-1H-1,3-benzodiazole-2-carboxamide]",1.31 to 1.5,1.51 to 1.75,1.51 to 1.75,2.51 to 5,5 to 7.5,> 7.5,< 100 nM,≤ 100 nM,0.101 to 0.15,> 0.201,–,–,–,–,–,–,–,–,–,–
"Cc1cc(C(=O)Nc2cccc(C3(Cc4nncn4C)COC3)c2)nc(C2CC2)n1 [Compound 336, 2-cyclopropyl-6-methyl-N-(3-(3-((4-methyl-4H-1,2,4-triazol-3-yl)methyl)oxetan-3-yl)phenyl)pyrimidine-4-carboxamide]",1.31 to 1.5,> 1.76,1.51 to 1.75,5 to 7.5,> 7.5,> 7.5,< 100 nM,≤ 100 nM,> 0.201,> 0.201,–,–,–,–,–,–,–,–,–,–
"C[C@H](Cc1nncn1C)c1cc(NC2COC2)nc(N2Cc3c(cccc3C(F)(F)F)C2=O)c1 [Compound 352, 2-{4-[(2R)-1-(4-methyl-4H-1,2,4-triazol-3-yl)propan-2-yl]-6-[(oxetan-3-yl)amino]pyridin-2-yl}-4-(trifluoromethyl)-2,3-dihydro-1H-isoindol-1-one]",1.01 to 1.3,1.01 to 1.3,1.31 to 1.5,1.01 to 2.5,1.01 to 2.5,5 to 7.5,< 100 nM,≤ 100 nM,0.051 to 0.1,> 0.201,–,–,–,–,–,–,–,–,–,–
"CC(C)Nc1cc([C@H](C)Cc2nncn2C)cc(N2Cc3c(cccc3C(F)(F)F)C2=O)n1 [Compound 353, 2-{4-[(2R)-1-(4-methyl-4H-1,2,4-triazol-3-yl)propan-2-yl]-6-[(propan-2-yl)amino]pyridin-2-yl}-4-(trifluoromethyl)-2,3-dihydro-1H-isoindol-1-one]",1.01 to 1.3,1.01 to 1.3,1.31 to 1.5,1.01 to 2.5,2.51 to 5,> 7.5,< 100 nM,≤ 100 nM,0.101 to 0.15,> 0.201,–,–,–,–,–,–,–,–,–,–
"CCOc1cc([C@H](C)Cc2nncn2C)cc(N2Cc3c(cccc3C(F)(F)F)C2=O)n1 [Compound 358, (R)-2-(6-ethoxy-4-(1-(4-methyl-4H-1,2,4-triazol-3-yl)propan-2-yl)pyridin-2-yl)-4-(trifluoromethyl)isoindolin-1-one]",1.01 to 1.3,1.31 to 1.5,1.31 to 1.5,2.51 to 5,5 to 7.5,> 7.5,< 100 nM,≤ 100 nM,0.151 to 0.2,> 0.201,–,–,–,–,–,–,–,–,–,–
"CCNc1cc([C@H](C)Cc2nncn2C)cc(N2Cc3c(cccc3C(F)(F)F)C2=O)n1 [Compound 360, (R)-2-(6-(ethylamino)-4-(1-(4-methyl-4H-1,2,4-triazol-3-yl)propan-2-yl)pyridin-2-yl)-4-(trifluoromethyl)isoindolin-1-one]",1.31 to 1.5,1.51 to 1.75,1.51 to 1.75,2.51 to 5,> 7.5,> 7.5,< 100 nM,≤ 100 nM,> 0.201,> 0.201,–,–,–,–,–,–,–,–,–,–
"CNc1cc([C@H](C)Cc2nncn2C)cc(N2Cc3c(cccc3C(F)(F)F)C2=O)n1 [Compound 363, (R)-2-(4-(1-(4-methyl-4H-1,2,4-triazol-3-yl)propan-2-yl)-6-(methylamino)pyridin-2-yl)-4-(trifluoromethyl)isoindolin-1-one]",1.01 to 1.3,1.01 to 1.3,1.31 to 1.5,1.01 to 2.5,1.01 to 2.5,5 to 7.5,< 100 nM,≤ 100 nM,0.051 to 0.1,0.151 to 0.2,–,–,–,–,–,–,–,–,–,–
"CN1CC2CCC(C1)N2c1cc2c(c(C(F)(F)F)c1)CN(c1cccc(C3(Cc4nncn4C)COC3)c1)C2=O [Compound 386, 2-(3-(3-((4-Methyl-4H-1,2,4-triazol-3-yl)methyl)oxetan-3-yl)phenyl)-6-(3-methyl-3,8-diazabicyclo[3.2.1]octan-8-yl)-4-(trifluoromethyl)isoindolin-1-one]",–,–,–,–,–,–,< 100 nM,≤ 100 nM,–,–,1.31 to 1.5,1.31 to 1.5,> 7.5,> 7.5,> 0.201,–,–,–,–,–
"C[C@H](c1cc2c(c(C(F)(F)F)c1)CN(c1cccc(C3(C(F)(F)c4nncn4C)COC3)c1)C2=O)N1CC[C@H](F)C1 [Example 571, 2-(3-(3-(difluoro(4-methyl-4H-1,2,4-triazol-3-yl)methyl)oxetan-3-yl)phenyl)-6-((R)-1-((S)-3-fluoropyrrolidin-1-yl)ethyl)-4-(trifluoromethyl)isoindolin-1-one]",–,–,–,–,–,–,< 100 nM,≤ 100 nM,–,–,–,–,–,–,–,> 1.76,> 1.76,> 7.5,> 7.5,> 0.201
"C[C@H](c1cc2c(c(C(F)(F)F)c1)CN(c1cccc(C3([C@@H](F)c4nncn4C)COC3)c1)C2=O)N1CCC2(CC2)C1 [Example 576, 6-((R)-1-(5-azaspiro[2.4]heptan-5-yl)ethyl)-2-(3-(3-((R)-fluoro(4-methyl-4H-1,2,4-triazol-3-yl)methyl)oxetan-3-yl)phenyl)-4-(trifluoromethyl)isoindolin-1-one]",–,–,–,–,–,–,< 100 nM,≤ 100 nM,–,–,–,–,–,–,–,> 1.76,> 1.76,> 7.5,> 7.5,> 0.201
"Cn1cnnc1CC1(c2cccc(N3Cc4c(cc(CN5CCC(C)(F)CC5)cc4C(F)(F)F)C3=O)c2)COC1 [Example 620, 6-((4-fluoro-4-methylpiperidin-1-yl)methyl)-2-(3-(3-((4-methyl-4H-1,2,4-triazol-3-yl)methyl)oxetan-3-yl)phenyl)-4-(trifluoromethyl)isoindolin-1-one]",–,–,–,–,–,–,< 100 nM,≤ 100 nM,–,–,–,–,–,–,–,1.31 to 1.5,1.31 to 1.5,> 7.5,> 7.5,> 0.201
